For 23 compounds, activity results are on record in patent US20260001876A1, “Compounds and Their Use as PDE4 Activators” (Mironid Limited, priority 2022, published 2026).

One experiment concerns m-IMCD3 cells expressing PDE4 long forms. Nature of the experiment: cAMP levels in assay media of PGE2-stimulated m-IMCD3 3D cell culture. Type of experiment: cell-based. As to conditions: Mus musculus, mIMCD3; 3 μM test compound; compared to 100% for (DMSO + PGE2); read-out: cAMP level (% of PGE2-stimulated). The procedure:
(§1) HEK 293 and MDCK cells (Public Health England, Cell Culture Collections) were maintained in Dulbecco's Modified Eagle's Medium (DMEM) supplemented with 10% (v/v) fetal bovine serum (FBS) (Seralab), 2 mM L-glutamine and 100 U/mL penicillin streptomycin cocktail (ThermoFisher); termed complete media. Clonal HEK 293 cell lines were maintained in complete media supplemented with 0.6 mg/ml G418 (Enzo Life Sciences). Mouse inner medullary collecting duct (m-IMCD3) cells [American Type Culture Collection (ATCC)] were maintained in media consisting of DMEM/Hams F-12 50/50 Mix (DMEM F12; Corning) supplemented with penicillin streptomycin cocktail (100 U/mL) and FBS (10% v/v) (DMEM F12-10% FBS).
Experiment 2: Reduction of CAMP Levels in m-IMCD3 Cell Culture Treated with PDE4 Long Form Activators
Activation of intracellular PDE4 long forms leads to a reduction of both intracellular CAMP and externalised cAMP (Omar et al., PNAS 116:13320-13329, 2019). This reduction may be measured in the cell culture media supernatant of 3D cystic cell cultures, such as in the m-IMCD3 cell cyst suppression assay described in Experiment 3.
Following the completion of the m-IMCD3 cell cyst suppression assay (Experiment 3), the CAMP levels in the assay media from individual or pooled assay wells was measured using a CAMP ELISA kit (Enzo Life Sciences) or a LANCE Ultra CAMP kit (PerkinElmer) according to the manufacturer's instructions.
Treatment with PDE4 long form activators reduced CAMP levels in PGE2-stimulated m-IMCD3 cell culture.
Take `CC(C)(C)CC(=O)N1CCc2nc(N3C4CCC3CNC4)ccc2C1` [Example 42, 1-(2-(3,8-diazabicyclo[3.2.1]octan-8-yl)-7,8-dihydro-1,6-naphthyridin-6(5H)-yl)-3,3-dimethylbutan-1-one]: the activity at 3 µM was 28%.
The same measure, in the same setting: to `CN1CC2CCC(C1)N2c1ccc2c(n1)CN(C(=O)NC1CCC(F)(F)CC1)C2` [Example 91, N-(4,4-difluorocyclohexyl)-2-(3-methyl-3,8-diazabicyclo[3.2.1]octan-8-yl)-5,7-dihydro-6H-pyrrolo[3,4-b]pyridine-6-carboxamide] belongs 31%; to `O=C(CC1CCCC1)N1CCc2nc(N3C[C@@H]4C[C@H]3CN4)ccc2C1` [Example 155, 1-(2-((1S,4S)-2,5-diazabicyclo[2.2.1]heptan-2-yl)-7,8-dihydro-1,6-naphthyridin-6(5H)-yl)-2-cyclopentylethan-1-one], 63%.

The same experiment, now with this note: Mus musculus, mIMCD3; 10 μM test compound; compared to 100% for (DMSO + PGE2); read-out: cAMP level (% of PGE2-stimulated).
With `O=C(CC1CCC(F)(F)CC1)N1CCc2nc(N3C4CCC3CNC4)ccc2C1` [Example 40, 1-(2-(3,8-diazabicyclo[3.2.1]octan-8-yl)-7,8-dihydro-1,6-naphthyridin-6(5H)-yl)-2-(4,4-difluorocyclohexyl)ethan-1-one], the activity at 10 µM was 43%.

For another experiment, the system named is m-IMCD3 cells. Nature of the experiment: Inhibition of PGE2-stimulated in vitro cyst formation in m-IMCD3 cells (3D culture). Format: cell-based. Conditions: Mus musculus, mIMCD3, 144 h; 3 μM; mean cyst area; 100% for (DMSO + PGE2) and 0% for DMSO control; 6 days of culture; read-out: % Cyst area* after incubation with 3 μM test compound. As for the experimental part:
as §1
Experiment 3: Inhibition of In Vitro Cyst Formation in m-IMCD3 Cells Treated with PDE4 Long Form Activators
The mouse Inner Medullary Collecting Duct cell line (m-IMCD3) spontaneously forms cystic spheroids in 3D culture with a Type 1 collagen/Matrigel extracellular matrix. This process can be stimulated with agents which raise intracellular cAMP and is used as an in vitro model for the formation of cystic structures in the kidneys of patients with ADPKD.
Rat Collagen I (Fisher Scientific) is prepared on ice by neutralising with 1M NaOH and diluting with a 2× volume of DMEM/F12+10% FBS. This is mixed 1:1.1 with ice cold Matrigel (Corning) for coating plates (coating mix), and 1:0.93 with Matrigel for cell plating (plating mix).
The assay is conducted in the wells of a 96-well plate culture dish using a total volume of 130 μL of collagen/Matrigel/DMEM F12-10% FBS suspension in growth media for each matrix plug per individual well. Initially, 30 μL of collagen/Matrigel/DMEM F12-10% FBS (coating mix) is added into the well of a 96 well plate and the collagen is set to a gel by incubating at 37° C. for at least 15 minutes. A second layer of 100 μL collagen/Matrigel suspension (plating mix) containing m-IMCD3 cells (2.75×10^6 m-IMCD3 cells per 96-well plate) is layered over the coating mix and the collagen/Matrigel/cell mix again set to a gel by incubating at 37° C. Cell cultures are maintained at 37° C. in an atmosphere of 5% CO2, 95% air.
Between 18 and 24 h after plating, test compound(s) as DMSO stock solutions [0.1% (v/v) final DMSO concentration] and PGE2 (100 nM final concentration) in DMEM F12-10% FBS are added in quadruplicate wells per condition. Media, together with the test compound and PGE2 are replenished after 2 or 3 days. After 6 days of culture z stack images of the wells are captured using the Nikon Eclipse Ti2-E microscope. Nikon General Analysis software is used to measure the following parameters in each well: the mean cyst area, the number of cysts, and the total cyst area.
PDE4 long form activators inhibited in vitro cyst formation in m-IMCD3 cells. Data are shown in Table 4 as mean cyst area (%), compared to 100% for (DMSO+PGE2) and 0% for DMSO control.
For the compound `CCN1CCN(c2ccc3c(n2)CCN(S(=O)(=O)Cc2ccc(F)cc2)C3)CC1` [Example 161, 2-(4-ethylpiperazin-1-yl)-6-((4-fluorobenzyl)sulfonyl)-5,6,7,8-tetrahydro-1,6-naphthyridine], the activity at 3 µM turned out to be 0%.
Still for that read-out and setting: the same measure for `O=S(=O)(Cc1ccccc1)N1CCc2nc(N3CCNCC3)ccc2C1` [Example 164, 6-(benzylsulfonyl)-2-(piperazin-1-yl)-5,6,7,8-tetrahydro-1,6-naphthyridine]: 0%.
Same read-out and setting: the same measure for `CCN1CCN(c2ccc3c(n2)CCN(S(=O)(=O)Cc2ccccc2)C3)CC1` [Example 165, 6-(benzylsulfonyl)-2-(4-ethylpiperazin-1-yl)-5,6,7,8-tetrahydro-1,6-naphthyridine]: -1%.
Turning to `CCN1CC2CCC(C1)N2c1ccc2c(n1)CCN(C(=O)N[C@H]1CCOc3ccccc31)C2` [Example 167, N—((S)-chroman-4-yl)-2-(3-ethyl-3,8-diazabicyclo[3.2.1]octan-8-yl)-7,8-dihydro-1,6-naphthyridine-6(5H)-carboxamide], the activity at 3 µM was -8%.
Same read-out and setting: to `O=C(N[C@H]1CCOc2ccccc21)N1CCc2nc(N3CCNCC3)ccc2C1` [Example 168, (S)—N-(chroman-4-yl)-2-(piperazin-1-yl)-7,8-dihydro-1,6-naphthyridine-6(5H)-carboxamide] belongs 4%.
On the same count and under the same terms, the same measure for `CCN1CCN(c2ccc3c(n2)CCN(C(=O)N[C@H]2CCOc4ccccc42)C3)CC1` [Example 169, (S)—N-(chroman-4-yl)-2-(4-ethylpiperazin-1-yl)-7,8-dihydro-1,6-naphthyridine-6(5H)-carboxamide]: -4%; for `CCN1CC2CCC(C1)N2c1ccc2c(n1)CCN(C(=O)N[C@@H]1CCOc3ccccc31)C2` [Example 170, N—((R)-chroman-4-yl)-2-(3-ethyl-3,8-diazabicyclo[3.2.1]octan-8-yl)-7,8-dihydro-1,6-naphthyridine-6(5H)-carboxamide]: 23%; for `CCN1CC2CCC(C1)N2c1ccc2c(n1)CCN(C(=O)COc1ccc(F)cc1)C2` [Example 171, 1-(2-(3-ethyl-3,8-diazabicyclo[3.2.1]octan-8-yl)-7,8-dihydro-1,6-naphthyridin-6(5H)-yl)-2-(4-fluorophenoxy)ethan-1-one]: 4%.
In the case of `CCCN1CC2CCC(C1)N2c1ccc2c(n1)CCN(C(=O)COc1ccc(F)cc1)C2` [Example 172, 2-(4-fluorophenoxy)-1-(2-(3-propyl-3,8-diazabicyclo[3.2.1]octan-8-yl)-7,8-dihydro-1,6-naphthyridin-6(5H)-yl)ethan-1-one], the activity at 3 µM came to 6%.
For `COCCN1CC2CCC(C1)N2c1ccc2c(n1)CCN(C(=O)COc1ccc(F)cc1)C2` [Example 173, 2-(4-fluorophenoxy)-1-(2-(3-(2-methoxyethyl)-3,8-diazabicyclo[3.2.1]octan-8-yl)-7,8-dihydro-1,6-naphthyridin-6(5H)-yl)ethan-1-one], the activity at 3 µM is 3%.
In the case of `COCCCN1CC2CCC(C1)N2c1ccc2c(n1)CCN(C(=O)COc1ccc(F)cc1)C2` [Example 174, 2-(4-fluorophenoxy)-1-(2-(3-(3-methoxypropyl)-3,8-diazabicyclo[3.2.1]octan-8-yl)-7,8-dihydro-1,6-naphthyridin-6(5H)-yl)ethan-1-one], the activity at 3 µM stood at 1%.
On the same count and under the same terms, to `O=C(Cc1ccccc1)N1CCc2nc(N3CCNCC3)ccc2C1` [Example 175, 2-phenyl-1-(2-(piperazin-1-yl)-7,8-dihydro-1,6-naphthyridin-6(5H)-yl)ethan-1-one] belongs 2%.
Same read-out and setting: to `O=C(Cc1ccc(F)cc1)N1CCc2nc(N3CCNCC3)ccc2C1` [Example 176, 2-(4-fluorophenyl)-1-(2-(piperazin-1-yl)-7,8-dihydro-1,6-naphthyridin-6(5H)-yl)ethan-1-one] belongs -2%; to `O=C(CC1CCCC1)N1CCc2cc(N3C4CCC3CNC4)cnc2C1` [Example 177, 1-(3-(3,8-diazabicyclo[3.2.1]octan-8-yl)-5,8-dihydro-1,7-naphthyridin-7 (6H)-yl)-2-cyclopentylethan-1-one], 10%; to `O=C(CC1CCCC1)N1CCc2cc(N3C4CCC3CNC4)ncc2C1` [Example 178, 1-(6-(3,8-diazabicyclo[3.2.1]octan-8-yl)-3,4-dihydro-2,7-naphthyridin-2 (1H)-yl)-2-cyclopentylethan-1-one], 1%.
Turning to `O=C(CC1CCCC1)N1CCc2cnc(N3C4CCC3CNC4)cc2C1` [Example 179, 1-(7-(3,8-diazabicyclo[3.2.1]octan-8-yl)-3,4-dihydro-2,6-naphthyridin-2 (1H)-yl)-2-cyclopentylethan-1-one], the activity at 3 µM amounted to 1%.
As for `O=C(COc1ccc(F)cc1)N1CCc2nc(N3CCNCC3)ccc2C1` [Example 180, 2-(4-fluorophenoxy)-1-(2-(piperazin-1-yl)-7,8-dihydro-1,6-naphthyridin-6(5H)-yl)ethan-1-one], the activity at 3 µM is 11%.
The same measure, in the same setting: the same measure for `Cc1ncccc1-c1ccc2c(n1)CCN(C(=O)CC1CCCC1)C2` [Example 181, 2-cyclopentyl-1-(2-(2-methylpyridin-3-yl)-7,8-dihydro-1,6-naphthyridin-6(5H)-yl)ethan-1-one]: 26%; for `Cc1cncc(-c2ccc3c(n2)CCN(C(=O)CC2CCCC2)C3)c1` [Example 182, 2-cyclopentyl-1-(2-(5-methylpyridin-3-yl)-7,8-dihydro-1,6-naphthyridin-6(5H)-yl)ethan-1-one]: 50%.

Staying with this experiment, now noted: Mus musculus, mIMCD3, 144 h; 10 μM; mean cyst area; 100% for (DMSO + PGE2) and 0% for DMSO control; 6 days of culture; read-out: % Cyst area* after incubation with 10 μM test compound.
For `O=C(CC1CCC(F)(F)CC1)N1CCc2nc(N3C4CCC3CNC4)ccc2C1` [Example 40, 1-(2-(3,8-diazabicyclo[3.2.1]octan-8-yl)-7,8-dihydro-1,6-naphthyridin-6(5H)-yl)-2-(4,4-difluorocyclohexyl)ethan-1-one], the activity at 10 µM stood at 0%.
Regarding `CC(C)(C)CC(=O)N1CCc2nc(N3C4CCC3CNC4)ccc2C1` [Example 42, 1-(2-(3,8-diazabicyclo[3.2.1]octan-8-yl)-7,8-dihydro-1,6-naphthyridin-6(5H)-yl)-3,3-dimethylbutan-1-one], the activity at 10 µM turned out to be 0%.
Same read-out and setting: the same measure for `CN1CC2CCC(C1)N2c1ccc2c(n1)CN(C(=O)NC1CCC(F)(F)CC1)C2` [Example 91, N-(4,4-difluorocyclohexyl)-2-(3-methyl-3,8-diazabicyclo[3.2.1]octan-8-yl)-5,7-dihydro-6H-pyrrolo[3,4-b]pyridine-6-carboxamide]: -5%.
